What was measured:
CCRF-CEM = assay: NCI antiproliferative SRB assay, Leukemia panel; format: cell-based, Human; settings: one dose 10 µM
HL-60(TB) = assay: cells; format: cell-based; settings: one dose 10 µM
MOLT-4 = assay: NCI antiproliferative SRB assay, Leukemia panel; format: cell-based, Human; settings: one dose 10 µM
A549/ATCC = assay: NCI antiproliferative SRB assay, Non-Small Cell Lung Cancer panel; format: cell-based, Human; settings: one dose 10 µM
NCI-H460 = assay: as above; format: cell-based, Human; settings: one dose 10 µM
COLO 205 = assay: NCI antiproliferative SRB assay, Colon Cancer panel; format: cell-based, Human; settings: one dose 10 µM
HCC-2998 = assay: as above; format: cell-based, Human; settings: one dose 10 µM
HCT-116 = assay: as above; format: cell-based, Human; settings: one dose 10 µM
HCT-15 = assay: as above; format: cell-based, Human; settings: one dose 10 µM
KM12 = assay: as above; format: cell-based, Human; settings: one dose 10 µM
SF-268 = assay: NCI antiproliferative SRB assay, CNS Cancer panel; format: cell-based, Human; settings: one dose 10 µM
SNB-19 = assay: NCI antiproliferative SRB assay, CNS Cancer panel; format: cell-based, Human; settings: one dose 10 µM
U251 = assay: NCI antiproliferative SRB assay, CNS Cancer panel; format: cell-based; settings: U251; one dose 10 µM
LOX IMVI = assay: NCI antiproliferative SRB assay, Melanoma panel; format: cell-based, Human; settings: one dose 10 µM
SK-MEL-2 = assay: NCI antiproliferative SRB assay, Melanoma panel; format: cell-based, Human; settings: one dose 10 µM
SK-MEL-28 = assay: NCI antiproliferative SRB assay, Melanoma panel; format: cell-based, Human; settings: one dose 10 µM
SK-MEL-5 = assay: NCI antiproliferative SRB assay, Melanoma panel; format: cell-based, Human; settings: one dose 10 µM
UACC-257 = assay: NCI antiproliferative SRB assay, Melanoma panel; format: cell-based, Human; settings: one dose 10 µM
UACC-62 = assay: NCI antiproliferative SRB assay, Melanoma panel; format: cell-based, Human; settings: one dose 10 µM
OVCAR-3 = assay: NCI antiproliferative SRB assay, Ovarian Cancer panel; format: cell-based, Human; settings: one dose 10 µM
SN 12C = assay: NCI antiproliferative SRB assay, Renal Cancer panel; format: cell-based, Human; settings: one dose 10 µM
TK-10 = assay: as above; format: cell-based, Human; settings: one dose 10 µM
UO-31 = assay: as above; format: cell-based, Human; settings: one dose 10 µM
MCF7 = assay: NCI antiproliferative SRB assay, Breast Cancer panel; format: cell-based, Human; settings: one dose 10 µM
MDA-MB-231 = assay: as above; format: cell-based; settings: one dose 10 µM
HS 578T = assay: as above; format: cell-based, Human; settings: one dose 10 µM
BT-549 = assay: as above; format: cell-based, Human; settings: one dose 10 µM
[1] = tested on: Prostate Cancer cell line panel; assay: NCI antiproliferative assay, panel summary; format: cell-based, Human; settings: 10 µM
[2] = tested on: Breast Cancer cell line panel; assay: NCI antiproliferative assay, panel summary; format: cell-based, Human; settings: 10 µM
60 NCI cancer cell lines = assay: NCI antiproliferative assay, summary over all lines; format: cell-based; settings: mean over cell lines; one dose 10 µM

## COc1ccc(/C=C/c2cc(/C=C/c3ccc(OC)c(O)c3)n(-c3cccc(Cl)c3)c(=S)n2)cc1O [3a]
CCRF-CEM
  %GI: 46.57%
  GP (growth percent): 53.43
HL-60(TB)
  %GI: 16.52%
  GP (growth percent): 83.48
MOLT-4
  %GI: 53.78%
  GP (growth percent): 46.22
A549/ATCC
  %GI: 27.44%
  GP (growth percent): 72.56
NCI-H460
  %GI: 10.49%
  GP (growth percent): 89.51
COLO 205
  %GI: −7.08%
  GP (growth percent): 107.08
HCC-2998
  %GI: −3.70%
  GP (growth percent): 103.70
HCT-116
  %GI: 38.12%
  GP (growth percent): 61.88
HCT-15
  %GI: 6.07%
  GP (growth percent): 93.93
KM12
  %GI: 19.67%
  GP (growth percent): 80.33
SF-268
  %GI: 16.24%
  GP (growth percent): 83.76
SNB-19
  %GI: 15.45%
  GP (growth percent): 84.55
U251
  %GI: 40.59%
  GP (growth percent): 59.41
LOX IMVI
  %GI: 21.36%
  GP (growth percent): 78.64
SK-MEL-2
  %GI: 4.85%
  GP (growth percent): 95.15
SK-MEL-28
  %GI: 7.56%
  GP (growth percent): 92.44
SK-MEL-5
  %GI: 21.01%
  GP (growth percent): 78.99
UACC-257
  %GI: 47.09%
  GP (growth percent): 52.91
UACC-62
  %GI: 17.81%
  GP (growth percent): 82.19
OVCAR-3
  %GI: 8.70%
  GP (growth percent): 91.30
SN 12C
  %GI: 7.39%
  GP (growth percent): 92.61
TK-10
  %GI: −12.60%
  GP (growth percent): 112.60
UO-31
  %GI: 28.74%
  GP (growth percent): 71.26
MCF7
  %GI: 32.09%
  GP (growth percent): 67.91
MDA-MB-231
  %GI: 31.75%
  GP (growth percent): 68.25
HS 578T
  %GI: 15.67%
  GP (growth percent): 84.33
BT-549
  %GI: 27.48%
  GP (growth percent): 72.52
[1]
  Mean % GI: 14.98%
[2]
  Mean % GI: 26.56%
60 NCI cancer cell lines
  Mean % GI: 17.68%
  Mean GP: 82.32

From PMC8398451, “Molecular Engineering of Curcumin, an Active Constituent of Curcuma longa L. (Turmeric) of the Family Zingiberaceae with Improved Antiproliferative Activity” (Plants, 2021)
